{"source": "patent US7405181B2", "about": "“Bio-fertilizer composition for promoting growth or orchid plants and application” (National Taiwan University, priority 2005, dated 2008)", "key": {"[1]": {"system": "Doritaenopsis casablanca Joy × Phalaenopsis taida Pinlong", "test": "Flowering rates with bio-fertilizer and plant growth substance", "type": "in vivo", "conditions": "room temperature", "method": "(§1) Phalaenopsis amabili and Doritaenopsis casablanca Joy×Phalaenopsis taida Pinlong are treated with either bio-fertilizer composition Mb or plant growth regulators Gibberellic Acid (GA3), or both. The flowering rates are observed after incubation."}, "Phalaenopsis amabilis": {"system": "Phalaenopsis amabilis", "test": "Flowering rates with bio-fertilizer and plant growth substance", "type": "in vivo", "conditions": "room temperature", "method": "as §1"}}}
{"compound": "C=C1C[C@]23C[C@@]1(O)CC[C@H]2[C@@]12C=C[C@H](O)[C@@](C)(C(=O)O1)[C@H]2[C@@H]3C(=O)O", "note": "[NM + GA3, Gibberellic Acid]", "values": [{"measurement": "flowering rate", "setting": "[1]", "result": 71, "unit": "%"}, {"measurement": "flowering rate", "setting": "Phalaenopsis amabilis", "result": 75, "unit": "%"}]}
